Measured values taken from patent publication US20240376113A1 (Volastra Therapeutics, Inc., priority 2020, published 2024).
Where two headings read alike, the source gives them in different places. Values belong to the molecule of their own block, whether it stands above or below them.

Legend:
[1] = target: ENPP1 on MDA-MB-231 cells (Homo sapiens (Human), UniProt P22413); experiment: Inhibition of ENPP1 hydrolysis of AMP p-nitrophenyl ester on MDA-MB-231 cells (Assay 2); assay type: cell-based; conditions: pNP-AMP 0.25 mM, MDA-MB-231 cells, 37° C. 3 h, KI,app from IC50 via Cheng/Prusoff
Sequence of ENPP1 on MDA-MB-231 cells (P22413 whole entry): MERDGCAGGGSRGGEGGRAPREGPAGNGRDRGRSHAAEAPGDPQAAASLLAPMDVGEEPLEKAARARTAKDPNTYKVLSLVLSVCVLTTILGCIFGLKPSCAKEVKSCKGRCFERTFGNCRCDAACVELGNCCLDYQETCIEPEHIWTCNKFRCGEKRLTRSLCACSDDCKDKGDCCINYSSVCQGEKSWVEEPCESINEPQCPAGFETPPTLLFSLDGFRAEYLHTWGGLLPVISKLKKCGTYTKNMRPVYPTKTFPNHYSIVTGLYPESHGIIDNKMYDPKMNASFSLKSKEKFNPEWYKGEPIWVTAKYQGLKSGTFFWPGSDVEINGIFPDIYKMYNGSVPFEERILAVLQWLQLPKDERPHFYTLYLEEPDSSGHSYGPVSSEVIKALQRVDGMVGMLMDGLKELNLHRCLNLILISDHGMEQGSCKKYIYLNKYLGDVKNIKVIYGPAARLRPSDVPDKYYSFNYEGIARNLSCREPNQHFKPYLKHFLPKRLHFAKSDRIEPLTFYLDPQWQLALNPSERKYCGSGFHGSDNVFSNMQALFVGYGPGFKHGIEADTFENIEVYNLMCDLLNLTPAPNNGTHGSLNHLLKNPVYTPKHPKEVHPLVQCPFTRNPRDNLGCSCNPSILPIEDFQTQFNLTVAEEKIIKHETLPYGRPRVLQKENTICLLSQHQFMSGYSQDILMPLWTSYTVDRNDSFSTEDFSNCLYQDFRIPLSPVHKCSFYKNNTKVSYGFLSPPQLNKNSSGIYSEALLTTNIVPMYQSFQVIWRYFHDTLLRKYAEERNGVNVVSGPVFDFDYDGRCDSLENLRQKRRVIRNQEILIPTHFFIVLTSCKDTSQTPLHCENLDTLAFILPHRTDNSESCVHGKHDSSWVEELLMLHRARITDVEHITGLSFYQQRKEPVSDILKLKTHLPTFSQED
Procedure: Inhibition of ENPP1 Hydrolysis of AMP p-Nitrophenyl Ester on MDA-MB-231 Cells (Assay 2)
ENPP1 is normally expressed on the human metastatic breast cancer cell line MDA-MB-231. Hydrolysis of the p-nitrophenyl ester of AMP (pNP-AMP), an isostere of ATP, is selectively catalyzed by ENPP1 in the supernatant of MDA-MB-231 cell cultures. Inhibition of the hydrolysis of pNP-AMP by MDA-MB-231 at pH 7.4 and 37° C. is a good model of physiologically relevant activity of membrane-bound ENPP1 at disease-relevant expression levels.
MDA-MB-231 cells were harvested using TypLE Express Enzyme digestion and suspended in 100 μL of Leibovitz's L-15 Medium, 20% FBS, seeding the cells in a 96-well assay plate with 4.5×10^4 cells/well. Cells were incubated at 37 C with 1% CO2 for 24 h. In a separate dilution plate, 2× of top dose of compound was prepared in phenol-red free 1640 medium without FBS and then 1:3 serial diluted in the same medium. The cell culture medium of L15 medium was aspirated carefully and cells were washed with PBS once, and 50 μL per well of test compound or DMSO blank are added to the assay plate. Substrate mix (50 μL; 0.5 mM pNP-AMP in phenol-red free 1640 media without FBS) was added for a pNP-AMP final concentration of 0.25 mM. The system was incubated at 37° C. for 3 h.

ENPP-1 ECD = ENPP-1 ECD (Homo sapiens (Human), UniProt P22413); experiment: Inhibition of ENPP1 hydrolysis of 2′,3′-cGAMP (Assay 1); conditions: AMP-Glo luminescence, KI from IC50 via Cheng/Prusoff
Sequence of ENPP-1 ECD (P22413 98-925): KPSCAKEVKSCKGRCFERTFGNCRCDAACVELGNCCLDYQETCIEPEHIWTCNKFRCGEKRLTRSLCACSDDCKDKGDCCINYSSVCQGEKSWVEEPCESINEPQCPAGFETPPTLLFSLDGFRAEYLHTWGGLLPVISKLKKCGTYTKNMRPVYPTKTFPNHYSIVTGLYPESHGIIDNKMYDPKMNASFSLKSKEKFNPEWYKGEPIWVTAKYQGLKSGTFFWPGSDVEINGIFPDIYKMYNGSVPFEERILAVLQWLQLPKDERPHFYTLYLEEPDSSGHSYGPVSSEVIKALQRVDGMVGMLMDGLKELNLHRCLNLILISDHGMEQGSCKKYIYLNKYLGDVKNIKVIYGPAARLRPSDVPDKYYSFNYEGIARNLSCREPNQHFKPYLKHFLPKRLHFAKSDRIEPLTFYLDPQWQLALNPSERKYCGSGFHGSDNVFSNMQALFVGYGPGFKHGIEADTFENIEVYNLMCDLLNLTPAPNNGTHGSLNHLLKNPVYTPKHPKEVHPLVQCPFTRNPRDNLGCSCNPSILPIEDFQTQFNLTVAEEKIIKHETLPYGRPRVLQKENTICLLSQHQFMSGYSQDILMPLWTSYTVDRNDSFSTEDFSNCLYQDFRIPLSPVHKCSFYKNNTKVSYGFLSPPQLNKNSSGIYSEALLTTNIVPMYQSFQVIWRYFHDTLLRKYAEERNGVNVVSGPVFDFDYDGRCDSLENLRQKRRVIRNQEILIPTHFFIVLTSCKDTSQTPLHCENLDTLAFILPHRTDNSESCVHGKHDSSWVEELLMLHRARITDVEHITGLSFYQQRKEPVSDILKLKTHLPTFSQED
Procedure: Test compounds were plated in a 3× dilution scheme in a 384 well plate.

[2] = read-out: Assay 2 KI,app values (class)
[3] = Assay 1 KI values (class), 2,3-cGAMP 24 μM
[4] = read-out: Assay 1 KI, 2,3-cGAMP 24 μM
[5] = read-out: Assay 1 KI values (class), 2,3-cGAMP 24 μM

Compound: Cc1cc2ncnn2c(N2CCCCC2)c1Cc1ccc(S(C)(=N)=O)cc1 (centres unmarked) [Compound 76, imino(methyl)(4-{[7-methyl-5-(piperidin-1-yl)-[1,2,4]triazolo[1,5-a]pyridin-6-yl]methyl}phenyl)-λ^6-sulfanone]
Ki ([1]; read-out: Assay 2 KI, app): 38.6 nM | Ki [1, 2]: > 10 nM | Ki (ENPP-1 ECD; [3]): < 3 nM

Compound: CS(=N)(=O)c1ccc(Cc2c(Cl)nc3ncnn3c2N2CCCC2)cc1 (centres unmarked) [Compound 78, (4-{[5-chloro-7-(pyrrolidin-1-yl)-[1,2,4]triazolo[1,5-a]pyrimidin-6-yl]methyl}phenyl)(imino)methyl-λ^6-sulfanone]
Ki ([1]; read-out: Assay 2 KI, app): 24.1 nM | Ki [1, 2]: > 10 nM | Ki (ENPP-1 ECD; [3]): < 3 nM

Compound: COCCS(=N)(=O)c1ccc(Cc2c(C)nc3ncnn3c2N(C)C)cc1 (centres unmarked) [Compound 60, (4-{[7-(dimethylamino)-5-methyl-[1,2,4]triazolo[1,5-a]pyrimidin-6-yl]methyl}phenyl)(imino)(2-methoxyethyl)-λ^6-sulfanone]
Ki ([1]; read-out: Assay 2 KI, app): 6.25 nM | Ki [1, 2]: < 10 nM | Ki (ENPP-1 ECD; [3]): < 3 nM | Ki (ENPP-1 ECD; [4]): 0.0862 nM

Compound: Cc1cc2ncnn2c(N(C)C)c1Cc1ccc(S(=N)(=O)CCC(=O)O)cc1 (centres unmarked) [Compound 87, 3-[(4-{[5-(dimethylamino)-7-methyl-[1,2,4]triazolo[1,5-a]pyridin-6-yl]methyl}phenyl)(imino)oxo-λ^6-sulfanyl]propanoic acid]
Ki ([1]; read-out: Assay 2 KI, app): 0.447 nM | Ki (ENPP-1 ECD; [4]): 0.0184 nM

Compound: CCN(C)c1c(Cc2ccc(S(C)(=N)=O)cc2)c(C)nc2ncnn12 (centres unmarked) [Compound 12, (4-((7-(ethyl(methyl)amino)-5-methyl-[1,2,4]triazolo[1,5-a]pyrimidin-6-yl)methyl)phenyl)(imino)(methyl)-λ^6-sulfanone]
Ki ([1]; read-out: Assay 2 KI, app): 48.9 nM | Ki [1, 2]: > 10 nM | Ki (ENPP-1 ECD; [3]): < 3 nM | Ki (ENPP-1 ECD; [4]): 0.479 nM

Compound: Cc1nc2ncnn2c(N2CCCC2)c1Cc1ccc(P(=O)(O)O)cc1 [Compound 36, (4-{[5-methyl-7-(pyrrolidin-1-yl)-[1,2,4]triazolo[1,5-a]pyrimidin-6-yl]methyl}phenyl)phosphonic acid]
Ki ([1]; read-out: Assay 2 KI, app): 5.68 nM | Ki [1, 2]: < 10 nM | Ki (ENPP-1 ECD; [3]): < 3 nM | Ki (ENPP-1 ECD; [4]): 0.512 nM

Compound: CCS(=N)(=O)c1ccc(Cc2c(C)nc3ncnn3c2N(C)C)cc1 (centres unmarked) [Compound 57, (4-{[7-(dimethylamino)-5-methyl-[1,2,4]triazolo[1,5-a]pyrimidin-6-yl]methyl}phenyl)(ethyl)imino-λ^6-sulfanone]
Ki ([1]; read-out: Assay 2 KI, app): 9.59 nM | Ki [1, 2]: < 10 nM | Ki (ENPP-1 ECD; [3]): < 3 nM

Compound: CS(=N)(=O)c1ccc(Cc2cnc3ncnn3c2N2CCCC2)cc1 (centres unmarked) [Compound 54]
Ki ([1]; read-out: Assay 2 KI, app): 74.7 nM | Ki [1, 2]: > 10 nM | Ki (ENPP-1 ECD; [5]): < 3 nM | Ki (ENPP-1 ECD; [4]): 1.71 nM

Compound: Cc1nc2ncnn2c(N2CCCC2)c1Cc1ccc(B(O)O)cc1 [Compound 81, (4-{[5-methyl-7-(pyrrolidin-1-yl)-[1,2,4]triazolo[1,5-a]pyrimidin-6-yl]methyl}phenyl)boronic acid]
Ki ([1]; read-out: Assay 2 KI, app): 13.5 nM | Ki [1, 2]: > 10 nM | Ki (ENPP-1 ECD; [3]): < 3 nM | Ki (ENPP-1 ECD; [4]): 0.817 nM

Compound: Cc1c(Cc2ccc(S(C)(=N)=O)cc2)c(N(C)C)n2ncnc2c1C#N (centres unmarked) [Compound 85, 5-(dimethylamino)-6-({4-[imino(methyl)oxo-λ^6-sulfanyl]phenyl}methyl)-7-methyl-[1,2,4]triazolo[1,5-a]pyridine-8-carbonitrile]
Ki ([1]; read-out: Assay 2 KI, app): 0.724 nM | Ki (ENPP-1 ECD; [4]): 0.0287 nM

Compound: Cc1nc2ncnn2c(N(C)C)c1Cc1ccc(S(C)(=N)=O)cc1 (centres unmarked) [Compound 1, (4-((7-(dimethylamino)-5-methyl-[1,2,4]triazolo[1,5-a]pyrimidin-6-yl)methyl)phenyl)(imino)(methyl)-λ^6-sulfanone]
Ki ([1]; read-out: Assay 2 KI, app): 7.47 nM | Ki [1, 2]: < 10 nM | Ki (ENPP-1 ECD; [3]): < 3 nM | Ki (ENPP-1 ECD; [4]): 0.109 nM

Compound: Cc1nc2ncnn2c(N2CCCC2)c1Cc1ccc(S(C)(=N)=O)cc1 (centres unmarked) [Compound 8, imino(methyl)(4-((5-methyl-7-(pyrrolidin-1-yl)-[1,2,4]triazolo[1,5-a]pyrimidin-6-yl)methyl)phenyl)-λ^6-sulfanone]
Ki ([1]; read-out: Assay 2 KI, app): 7.79 nM | Ki [1, 2]: < 10 nM | Ki (ENPP-1 ECD; [3]): < 3 nM | Ki (ENPP-1 ECD; [4]): 0.0718 nM

Further lines, results first:

Ki ([1]; read-out: Assay 2 KI, app): 1.67 nM | Ki [1, 2]: < 10 nM | Ki (ENPP-1 ECD; [5]): < 3 nM | Ki (ENPP-1 ECD; [4]): 0.015 nM
Compound: Cc1nc2ncnn2c(N(C)C)c1Cc1ccc([S@@](C)(=N)=O)cc1 (single isomer, unassigned) [Compound 1b]

Ki ([1]; read-out: Assay 2 KI, app): 0.56 nM | Ki [1, 2]: < 10 nM | Ki (ENPP-1 ECD; [5]): < 3 nM | Ki (ENPP-1 ECD; [4]): 0.00806 nM
Compound: Cc1cc2ncnn2c(N(C)C)c1Cc1ccc([S@](C)(=N)=O)cc1 (single isomer, unassigned) [Compound 28a]

Ki ([1]; read-out: Assay 2 KI, app): 1.59 nM | Ki [1, 2]: < 10 nM | Ki (ENPP-1 ECD; [5]): < 3 nM | Ki (ENPP-1 ECD; [4]): 0.0236 nM
Compound: Cc1nc2ncnn2c(N(C)C)c1Cc1ccc([S@@](C)(=N)=O)cc1 (single isomer, unassigned) [Compound 49a]

Ki ([1]; read-out: Assay 2 KI, app): 0.505 nM | Ki (ENPP-1 ECD; [4]): 0.00881 nM
Compound: Cc1nc2ncnn2c(N(C)C)c1Cc1ccc([S@@](=N)(=O)CCC(=O)O)cc1 [Compound 72a]

Ki ([1]; read-out: Assay 2 KI, app): 9.73 nM | Ki [1, 2]: < 10 nM | Ki (ENPP-1 ECD; [5]): < 3 nM | Ki (ENPP-1 ECD; [4]): 0.054 nM
Compound: Cc1nc2ncnn2c(N2CCCC2)c1Cc1ccc([S@](C)(=N)=O)cc1 (single isomer, unassigned) [Compound 8a]
